This is an account of results in patent US20100285145A1, “GPR 119 MODULATORS” (PFIZER INC, priority 2009, published 2010).

Test [1] concerns the target T1, human GPR119 (Homo sapiens, UniProt Q8TDV5).
T1 sequence (Q8TDV5 1-335): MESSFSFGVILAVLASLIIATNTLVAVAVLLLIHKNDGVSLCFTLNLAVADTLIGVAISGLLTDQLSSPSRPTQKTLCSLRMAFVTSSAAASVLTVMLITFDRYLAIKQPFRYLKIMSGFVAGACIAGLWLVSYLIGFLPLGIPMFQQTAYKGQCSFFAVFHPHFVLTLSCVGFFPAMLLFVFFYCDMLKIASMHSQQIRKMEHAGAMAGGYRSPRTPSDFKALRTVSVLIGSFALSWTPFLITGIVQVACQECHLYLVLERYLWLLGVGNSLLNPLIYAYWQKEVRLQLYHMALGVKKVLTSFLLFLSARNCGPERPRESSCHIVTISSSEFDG
The experiment in a line: GPR119 radioligand binding assay ([3H]-Compound A or B, membranes of HEK 293FT cells expressing hGPR119). Details: host or cells: HEK293-CRE beta-lactamase. To be noted: calculated from IC50 with Cheng-Prusoff; each line a separate determination. How it is done: HEK 293FT cells (Invitrogen, Carlsbad, Calif.) were grown in a shake flask in 293Freestyle medium (Invitrogen) supplemented with 50 microg/mL neomycin and 10 mM HEPES (37C, 8% carbon dioxide, shaking). The cells were centrifuged gently (approximately 500×g, 10 minutes) and the pellet resuspended in a mixture of Dulbecco's PBS (minus Mg++/−Ca++) supplemented with 18% fetal bovine serum (Sigma Aldrich) and P1 virus such that the multiplicity of infection (MOI) was 10 and the final cell density was 1.3×10^6/mL (total volume 2.5 liters). The cells were transferred to a 5 liter Wave Bioreactor Wavebag (Wave Technologies, Mass.) and incubated for 4 hours at 27 degrees Celsius (17 rocks/min, 7 degrees platform angle); at the end of the incubation period, an equal volume (2.5 liters) of 293Freestyle medium supplemented with 30 mM sodium butyrate (Sigma Aldrich) was added (final concentration=15 mM), and the cells were grown for 20 hours (37 degrees Celsius, 8% CO2 [0.2 liters/min}, 25 rocks/minute, 7 degrees platform angle). Cells were harvested via centrifugation (3,000×g, 10 minutes), washed once on DPBS (minus Ca++/Mg++), resuspended in 0.25M sucrose, 25 mM HEPES, 0.5 mM EDTA, pH 7.4 and frozen at −80 degrees Celsius.
The frozen cells were thawed on ice and centrifuged at 700×g (1400 rpm) for 10 minutes at 4 degrees Celsius. The cell pellet was resuspended in 20 mL phosphate-buffered saline, and centrifuged at 1400 rpm for 10 minutes. The cell pellet was then resuspended in homogenization buffer (10 mM HEPES (Gibco #15630), pH 7.5, 1 mM EDTA (BioSolutions, #BIO260-15), 1 mM EGTA (Sigma, #E-4378), 0.01 mg/mL benzamidine (Sigma #B 6506), 0.01 mg/mL bacitracin (Sigma #B 0125), 0.005 mg/mL leupeptin (Sigma #L 8511), 0.005 mg/mL aprotinin (Sigma #A 1153)) and incubated on ice for 10 minutes. Cells were then lysed with 15 gentle strokes of a tight-fitting glass Dounce homogenizer. The homogenate was centrifuged at 1000×g (2200 rpm) for 10 minutes at 4 degrees Celsius. The supernatant was transferred into fresh centrifuge tubes on ice. The cell pellet was resuspended in homogenization buffer, and centrifuged again at 1000×g (2200 rpm) for 10 minutes at 4 degrees Celsius after which the supernatant was removed and the pellet resuspended in homogenization buffer. This process was repeated a third time, after which the supernatants were combined, Benzonase (Novagen # 71206) and MgCl2 (Fluka #63020) were added to final concentrations of 1 U/mL and 6 mM, respectively, and incubated on ice for one hour. The solution was then centrifuged at 25,000×g (15000 rpm) for 20 minutes at 4 degrees Celsius, the supernatant was discarded, and the pellet was resuspended in fresh homogenization buffer (minus Benzonase and MgCl2). After repeating the 25,000×g centrifugation step, the final membrane pellet was resuspended in homogenization buffer and frozen at −80 degrees Celsius. The protein concentration was determined using the Pierce BCA protein assay kit (Pierce reagents A #23223 and B #23224).
Test compounds were serially diluted in 100% DMSO (J. T. Baker #922401). 2 microL of each dilution was added to appropriate wells of a 96-well plate (each concentration in triplicate). Unlabeled Compound A (or Compound B), at a final concentration of 10 microM, was used to determine non-specific binding. [^3H]-Compound A (or [^3H]-Compound B) was diluted in binding buffer (50 mM Tris-HCl, pH 7.5, (Sigma #T7443), 10 mM MgCl2 (Fluka 63020), 1 mM EDTA (BioSolutions #BIO260-15), 0.15% bovine serum albumin (Sigma #A7511), 0.01 mg/mL benzamidine (Sigma #B 6506), 0.01 mg/mL bacitracin (Sigma #B 0125), 0.005 mg/mL leupeptin (Sigma #L 8511), 0.005 mg/mL aprotinin (Sigma #A 1153)) to a concentration of 60 nM, and 100 microL added to all wells of 96-well plate (Nalge Nunc # 267245). […]

Test [2] addresses T1, human GPR119. The experiment in a line: cAMP HTRF functional assay (hGPR119 HEK-CRE beta-lactamase cells). The class given is cell-based. Further details: host or cells: HEK293-CRE beta-lactamase. The settings on record: for Emax: read-out: Intrinsic Activity (Human cAMP). Here is the method: GPR119 agonist activity was also determined with a cell-based assay utilizing an HTRF (Homogeneous Time-Resolved Fluorescence) cAMP detection kit (cAMP dynamic 2 Assay Kit; Cis Bio cat #62AM4PEC) that measures cAMP levels in the cell. The method is a competitive immunoassay between native cAMP produced by the cells and the cAMP labeled with the dye d2. The tracer binding is visualized by a Mab anti-cAMP labeled with Cryptate. The specific signal (i.e. energy transfer) is inversely proportional to the concentration of cAMP in either standard or sample.
Specifically, hGPR119 HEK-CRE beta-lactamase cells (Invitrogen 2.5×10^7/mL; the same cell line used in the beta-lactamase assay described above) are removed from cryopreservation and diluted in growth medium (Dulbecco's modified Eagle medium high glucose (DMEM; Gibco Cat # 11995-065), 1% charcoal dextran treated fetal bovine serum (CD serum; HyClone Cat # SH30068.03), 1×MEM Nonessential amino acids (Gibco Cat # 15630-080) and 25 mM HEPES pH 7.0 (Gibco Cat # 15630-080)). The cell concentration was adjusted to 1.5×10^5 cells/mL and 30 mLs of this suspension was added to a T-175 flask and incubated at 37 degrees Celsius in a humidified environment in 5% carbon dioxide. After 16 hours (overnight), the cells were removed from the T-175 flask (by rapping the side of the flask), centrifuged at 800×g and then re-suspended in assay medium (1×HBSS+CaCl2+MgCl2 (Gibco Cat # 14025-092) and 25 mM HEPES pH 7.0 (Gibco Cat # 15630-080)). The cell concentration was adjusted to 6.25×10^5 cells/mL with assay medium and 8 μl of this cell suspension (5000 cells) was added to each well of a white Greiner 384-well, low-volume assay plate (VWR cat #82051-458).
Varying concentrations of each compound to be tested were diluted in assay buffer containing 3-isobutyl-1-methylxanthin (IBMX; Sigma cat #15879) and added to the assay plate wells in a volume of 2 microL (final IBMX concentration was 400 microM and final DMSO concentration was 0.58%). Following 30 minutes incubation at room temperature, 5 microL of labeled d2 cAMP and 5 microL of anti-cAMP antibody (both diluted 1:20 in cell lysis buffer; as described in the manufacturers assay protocol) were added to each well of the assay plate. The plates were then incubated at room temperature and after 60 minutes, changes in the HTRF signal were read with an Envision 2104 multilabel plate reader using excitation of 330 nm and emissions of 615 and 665 nm. Raw data were converted to nM cAMP by interpolation from a cAMP standard curve (as described in the manufacturer's assay protocol) and EC50 determinations were made from an agonist-response curves analyzed with a curve fitting program using a 4-parameter logistic dose response equation.

The target in test [3] is T1, human GPR119. Description: β-Lactamase reporter functional assay (hGPR119 HEK293-CRE beta-lactamase cells). The class given is cell-based. Further details: host or cells: HEK293-CRE beta-lactamase; Emax: dose or concentration left out as unconfirmed. How it is done: The assay for GPR119 agonists utilizes a cell-based (hGPR119 HEK293-CRE beta-lactamase) reporter construct where agonist activation of human GPR119 is coupled to beta-lactamase production via a cyclic AMP response element (CRE). GPR119 activity is then measured utilizing a FRET-enabled beta-lactamase substrate, CCF4-AM (Live Blazer FRET-B/G Loading kit, Invitrogen cat #K1027). Specifically, hGPR119-HEK-CRE-beta-lactamase cells (Invitrogen 2.5×10^7/mL) were removed from liquid nitrogen storage, and diluted in plating medium (Dulbecco's modified Eagle medium high glucose (DMEM; Gibco Cat # 11995-065), 10% heat inactivated fetal bovine serum (HIFBS; Sigma Cat # F4135), 1×MEM Nonessential amino acids (Gibco Cat # 15630-080), 25 mM HEPES pH 7.0 (Gibco Cat # 15630-080), 200 nM potassium clavulanate (Sigma Cat # P3494). The cell concentration was adjusted using cell plating medium and 50 microL of this cell suspension ([…]) was added into each well of a black, clear bottom, poly-d-lysine coated 384-well plate (Greiner Bio-One cat# 781946) and incubated at 37 degrees Celsius in a humidified environment containing 5% carbon dioxide. After 4 hours the plating medium was removed and replaced with 40 microL of assay medium (Assay medium is plating medium without potassium clavulanate and HIFBS). Varying concentrations of each compound to be tested was then added in a volume of 10 microL (final DMSO ≦0.5%) and the cells were incubated for 16 hours at 37 degrees Celsius in a humidified environment containing 5% carbon dioxide. Plates were removed from the incubator and allowed to equilibrate to room temperature for approximately 15 minutes. 10 microL of 6×CCF4/AM working dye solution (prepared according to instructions in the Live Blazer FRET-B/G Loading kit, Invitrogen cat #K1027) was added per well and incubated at room temperature for 2 hours in the dark. Fluorescence was measured on an EnVision fluorimetric plate reader, excitation 405 nm, emission 460 nm/535 nm. EC50 determinations were made from agonist-response curves analyzed with a curve fitting program using a 4-parameter logistic dose-response equation.

[4] abbreviates: marked **: curve was extrapolated to 100%.
[5] abbreviates: HTRF cAMP, 30 min, 400 microM IBMX, each line a separate determination.
The mark [6] stands for this setting: percent of maximal activity relative to standard GPR119 agonist at 10 micromolar.

“And” between values parts separate entries of the source, which are not always exact repeats. Identical values can stand only once.

On to `Cc1c(O[C@@H]2CCN(C(=O)OC3(C)CC3)C[C@@H]2F)ncnc1N1CCc2nnccc21` [Example 31, 1-Methylcyclopropyl (3S,4R)-4-{[6-(6,7-dihydro-5H-pyrrolo[3,2-c]pyridazin-5-yl)-5-methylpyrimidin-4-yl]oxy}-3-fluoropiperidine-1-carboxylate], for which the Ki on human GPR119 [1] was 0.618 µM. Besides, at human GPR119 [2] (curve was extrapolated to 100% to calculate an EC50), the EC50 is 4.82 µM and 5.89 µM and 6.1 µM. In addition, at human GPR119 [2] (setting [4]), the “Intrinsic Activity (Human cAMP)” value is given as 100** % and the Emax is 100%.

`Cc1c(OC2CCN(C(=O)OC3(C)CC3)CC2F)ncnc1N1CCc2cc(C(N)=O)ccc21` (racemic) [Example 20, 1-Methylcyclopropyl 4-{[6-(5-carbamoyl-2,3-dihydro-1H-indol-1-yl)-5-methylpyrimidin-4-yl]oxy}-3-fluoropiperidine-1-carboxylate (racemic)]: the Ki at human GPR119 [1] was 1.71 µM. For the same compound, the EC50 on human GPR119 [2] (setting [5]) was 0.493 µM and 0.765 µM and 1.05 µM. At human GPR119 [2] (setting [6]), the “Intrinsic Activity (Human cAMP)” value is 91.6% and 98%; the Emax came out at 81.5%.

`COc1c(OC2CCN(C(=O)OC(C)C)CC2)ncnc1N1CCc2cc(S(C)(=O)=O)ccc21` [Example 7, Isopropyl 4-({5-methoxy-6-[5-(methylsulfonyl)-2,3-dihydro-1H-indol-1-yl]pyrimidin-4-yl}oxy)piperidine-1-carboxylate]: the half-maximal effective concentration (EC50) on human GPR119 [3] (hGPR119 HEK293-CRE beta-lactamase cells, 16 h incubation, each line a separate determination, read-out: Human B-lactamase Functional EC50) is 0.0966 µM. Moreover, the Emax on human GPR119 [3] (percent of maximal activity relative to standard GPR119 agonist at 10 micromolar, read-out: Intrinsic Activity (Human B-lactamase)) was 101%. Besides, the Ki at human GPR119 [1] is 0.285 µM.

Turning to `Cc1c(O[C@@H]2CCN(C(=O)OC(C)(C)C)C[C@@H]2F)ncnc1N1CCc2nnccc21` [Example 30, tert-Butyl (3S,4R)-4-{[6-(6,7-dihydro-5H-pyrrolo[3,2-c]pyridazin-5-yl)-5-methylpyrimidin-4-yl]oxy}-3-fluoropiperidine-1-carboxylate], the inhibition constant Ki on human GPR119 [1] is over 8.15 µM. For the same compound, the EC50 at human GPR119 [2] (setting [5]) is 0.549 µM and 0.52 µM. For the same compound, at human GPR119 [2] (setting [6]), the “Intrinsic Activity (Human cAMP)” value is on record as 28% and the Emax turned out to be 28%.

Take `Cc1c(O[C@H]2[C@@H]3COC[C@H]2CN(C(=O)OC(C)(C)C)C3)ncnc1N1CCc2ncccc21` [Example 21, tert-Butyl (9-anti)-9-{[6-(2,3-dihydro-1H-pyrrolo[3,2-b]pyridin-1-yl)-5-methylpyrimidin-4-yl]oxy}-3-oxa-7-azabicyclo[3.3]nonane-7-carboxylate]: the Ki on human GPR119 [1] was 0.026 µM and 0.0256 µM. Moreover, the half-maximal effective concentration (EC50) on human GPR119 [2] (setting [5]) is 0.107 µM and 0.0878 µM. At human GPR119 [2] (setting [6]), the “Intrinsic Activity (Human cAMP)” value is reported as 45.2% and the Emax was determined as 49.8%.
